In ChEMBL document CHEMBL3885861, “Open TG-GATES”:

Species on record: Rattus norvegicus
Experiment: Open TG-GATES - Regimen: Daily Repeat
Type: toxicity, organism-based, Sprague-Dawley
Set-up: regimen Daily Repeat, gender Male, age 6 weeks
Conditions: in vivo, po, route gavage; for APTT / Bas / Eos / Fbg / Hb / Ht / Lym / MCH / MCHC / MCV / Mono / Neu / PT / Plat / RBC / Ret / WBC: tissue Blood; for KIDNEY_L / KIDNEY_R / KIDNEY_TOTAL: tissue Kidney; for LIVER: tissue Liver; for A/G / ALP / ALT / AST / BUN / CRE / Ca / Cl / DBIL / GLC / IP / K / LDH / Na / PL / RALB / TBIL / TC / TG / TP / gamma-GTP: tissue Plasma
[1] = 0 mg/kg, 72 h, dose level Control, time 3 day
[2] = 0 mg/kg, […], dose level Control, time 7 day
[3] = 0 mg/kg, […], dose level Control, time 14 day
[4] = 0 mg/kg, […], dose level Control, time 28 day
[5] = 25 mg/kg, 72 h, dose level Low, time 3 day
[6] = 25 mg/kg, […], dose level Low, time 7 day
[7] = 25 mg/kg, […], dose level Low, time 14 day
[8] = 25 mg/kg, […], dose level Low, time 28 day

CCSCC[C@H](N)C(=O)O [ETHIONINE]
TERMINAL_BW [1]: 234.6 g
APTT [1]: 19.8 s
Bas [1]: 0%
Eos [1]: 1%
Fbg [1]: 226.8 mg/dL
Hb [1]: 13 g/dL
Ht [1]: 38.3%
Lym [1]: 78.2%
MCH [1]: 21 pg
MCHC [1]: 34%
MCV [1]: 61.7 fL
Mono [1]: 3%
Neu [1]: 17.2%
PT [1]: 12 s
Plat [1]: 126.2 x10_4/uL
RBC [1]: 621.6 x10_4/ul
Ret [1]: 5.9%
WBC [1]: 113.1 x10_2/uL
KIDNEY_L [1]: 1.1 g
KIDNEY_R [1]: 1.1 g
KIDNEY_TOTAL [1]: 2.1 g
LIVER [1]: 10.9 g
A/G [1]: 1.6
ALP [1]: 977.6 IU/L
ALT [1]: 35.6 IU/L
AST [1]: 68 IU/L
BUN [1]: 13.8 mg/dL
CRE [1]: 0.4 mg/dL
Ca [1]: 10.8 mg/dL
Cl [1]: 101 meq/L
DBIL [1]: 0.08 mg/dL
GLC [1]: 210.2 mg/dL
IP [1]: 7.8 mg/dL
K [1]: 3.9 meq/L
LDH [1]: 174.8 IU/L
Na [1]: 140.4 meq/L
PL [1]: 149 mg/dL
RALB [1]: 3.4 g/dL
TBIL [1]: 0.1 mg/dL
TC [1]: 74 mg/dL
TG [1]: 99.2 mg/dL
TP [1]: 5.5 g/dL
gamma-GTP [1]: 1 IU/L
TERMINAL_BW [2]: 269.1 g
TERMINAL_BW [3]: 307.1 g
TERMINAL_BW [4]: 407.1 g
APTT [2]: 20.5 s
Bas [2]: 0%
Eos [2]: 0.8%
Fbg [2]: 222.8 mg/dL
Hb [2]: 14 g/dL
Ht [2]: 41.2%
Lym [2]: 79%
MCH [2]: 21.1 pg
MCHC [2]: 34%
MCV [2]: 61.8 fL
Mono [2]: 2.8%
Neu [2]: 16.6%
PT [2]: 12.1 s
Plat [2]: 123.3 x10_4/uL
RBC [2]: 666 x10_4/ul
Ret [2]: 5.6%
WBC [2]: 125.1 x10_2/uL
APTT [3]: 18.9 s
Bas [3]: 0%
Eos [3]: 1%
Fbg [3]: 213.6 mg/dL
Hb [3]: 14.5 g/dL
Ht [3]: 42.1%
Lym [3]: 77.2%
MCH [3]: 20.3 pg
MCHC [3]: 34.5%
MCV [3]: 58.9 fL
Mono [3]: 2.4%
Neu [3]: 18.8%
PT [3]: 11.9 s
Plat [3]: 114.5 x10_4/uL
RBC [3]: 714.8 x10_4/ul
Ret [3]: 3.8%
WBC [3]: 113.5 x10_2/uL
APTT [4]: 20.5 s
Bas [4]: 0%
Eos [4]: 1%
Fbg [4]: 216 mg/dL
Hb [4]: 15.3 g/dL
Ht [4]: 43.5%
Lym [4]: 79.2%
MCH [4]: 19.6 pg
MCHC [4]: 35.1%
MCV [4]: 55.9 fL
Mono [4]: 2%
Neu [4]: 16.8%
PT [4]: 12.4 s
Plat [4]: 113.3 x10_4/uL
RBC [4]: 778.4 x10_4/ul
Ret [4]: 2.2%
WBC [4]: 104.9 x10_2/uL
KIDNEY_L [2]: 1.1 g
KIDNEY_R [2]: 1.1 g
KIDNEY_TOTAL [2]: 2.2 g
KIDNEY_L [3]: 1.2 g
KIDNEY_R [3]: 1.2 g
KIDNEY_TOTAL [3]: 2.4 g
KIDNEY_L [4]: 1.5 g
KIDNEY_R [4]: 1.5 g
KIDNEY_TOTAL [4]: 2.9 g
LIVER [2]: 12.6 g
LIVER [3]: 13 g
LIVER [4]: 16.6 g
A/G [2]: 1.5
ALP [2]: 874.2 IU/L
ALT [2]: 34.6 IU/L
AST [2]: 62.2 IU/L
BUN [2]: 16.8 mg/dL
CRE [2]: 0.4 mg/dL
Ca [2]: 10.7 mg/dL
Cl [2]: 103.2 meq/L
DBIL [2]: 0.092 mg/dL
GLC [2]: 198 mg/dL
IP [2]: 7.6 mg/dL
K [2]: 3.8 meq/L
LDH [2]: 173.8 IU/L
Na [2]: 140.6 meq/L
PL [2]: 153 mg/dL
RALB [2]: 3.5 g/dL
TBIL [2]: 0.2 mg/dL
TC [2]: 70.6 mg/dL
TG [2]: 131.8 mg/dL
TP [2]: 5.8 g/dL
gamma-GTP [2]: 0.8 IU/L
A/G [3]: 1.5
ALP [3]: 742.4 IU/L
ALT [3]: 34.8 IU/L
AST [3]: 60.6 IU/L
BUN [3]: 16 mg/dL
CRE [3]: 0.4 mg/dL
Ca [3]: 10.6 mg/dL
Cl [3]: 102.4 meq/L
DBIL [3]: 0.082 mg/dL
GLC [3]: 240.8 mg/dL
IP [3]: 7.6 mg/dL
K [3]: 3.4 meq/L
LDH [3]: 177.2 IU/L
Na [3]: 141 meq/L
PL [3]: 144.6 mg/dL
RALB [3]: 3.5 g/dL
TBIL [3]: 0.1 mg/dL
TC [3]: 70 mg/dL
TG [3]: 125.2 mg/dL
TP [3]: 5.8 g/dL
gamma-GTP [3]: 0.8 IU/L
A/G [4]: 1.3
ALP [4]: 506.2 IU/L
ALT [4]: 32.2 IU/L
AST [4]: 65.2 IU/L
BUN [4]: 18.8 mg/dL
CRE [4]: 0.5 mg/dL
Ca [4]: 10.4 mg/dL
Cl [4]: 103 meq/L
DBIL [4]: 0.1 mg/dL
GLC [4]: 233 mg/dL
IP [4]: 7.1 mg/dL
K [4]: 3.8 meq/L
LDH [4]: 223.6 IU/L
Na [4]: 141.2 meq/L
PL [4]: 145.8 mg/dL
RALB [4]: 3.4 g/dL
TBIL [4]: 0.1 mg/dL
TC [4]: 72 mg/dL
TG [4]: 115.2 mg/dL
TP [4]: 6.1 g/dL
gamma-GTP [4]: 0.8 IU/L
TERMINAL_BW [5]: 235.6 g
APTT [5]: 22.5 s
Bas [5]: 0%
Eos [5]: 1%
Fbg [5]: 213.8 mg/dL
Hb [5]: 13.1 g/dL
Ht [5]: 39.1%
Lym [5]: 76.6%
MCH [5]: 20.8 pg
MCHC [5]: 33.6%
MCV [5]: 61.9 fL
Mono [5]: 2.8%
Neu [5]: 18.8%
PT [5]: 13.5 s
Plat [5]: 126.1 x10_4/uL
RBC [5]: 631.2 x10_4/ul
Ret [5]: 6.4%
WBC [5]: 124.8 x10_2/uL
KIDNEY_L [5]: 1 g
KIDNEY_R [5]: 1 g
KIDNEY_TOTAL [5]: 2.1 g
LIVER [5]: 11 g
A/G [5]: 1.6
ALP [5]: 1017.8 IU/L
ALT [5]: 39.2 IU/L
AST [5]: 68.2 IU/L
BUN [5]: 14.4 mg/dL
CRE [5]: 0.4 mg/dL
Ca [5]: 10.6 mg/dL
Cl [5]: 100.2 meq/L
DBIL [5]: 0.08 mg/dL
GLC [5]: 203.4 mg/dL
IP [5]: 8.7 mg/dL
K [5]: 4 meq/L
LDH [5]: 174.4 IU/L
Na [5]: 139.6 meq/L
PL [5]: 129.6 mg/dL
RALB [5]: 3.5 g/dL
TBIL [5]: 0.1 mg/dL
TC [5]: 56.6 mg/dL
TG [5]: 97 mg/dL
TP [5]: 5.7 g/dL
gamma-GTP [5]: 1.2 IU/L
TERMINAL_BW [6]: 268.3 g
TERMINAL_BW [7]: 312.6 g
TERMINAL_BW [8]: 389.5 g
APTT [6]: 22.7 s
Bas [6]: 0%
Eos [6]: 1%
Fbg [6]: 206.4 mg/dL
Hb [6]: 13.7 g/dL
Ht [6]: 40.1%
Lym [6]: 81.8%
MCH [6]: 20.8 pg
MCHC [6]: 34.2%
MCV [6]: 60.8 fL
Mono [6]: 2.2%
Neu [6]: 14.8%
PT [6]: 13.3 s
Plat [6]: 121.3 x10_4/uL
RBC [6]: 660 x10_4/ul
Ret [6]: 5.6%
WBC [6]: 94 x10_2/uL
APTT [7]: 22.1 s
Bas [7]: 0%
Eos [7]: 0.8%
Fbg [7]: 192.2 mg/dL
Hb [7]: 14.3 g/dL
Ht [7]: 41.5%
Lym [7]: 79.6%
MCH [7]: 20.8 pg
MCHC [7]: 34.6%
MCV [7]: 60.2 fL
Mono [7]: 2.2%
Neu [7]: 16.4%
PT [7]: 13.8 s
Plat [7]: 125.2 x10_4/uL
RBC [7]: 689 x10_4/ul
Ret [7]: 3.8%
WBC [7]: 109.7 x10_2/uL
APTT [8]: 24.9 s
Bas [8]: 0%
Eos [8]: 1.2%
Fbg [8]: 184.4 mg/dL
Hb [8]: 15.3 g/dL
Ht [8]: 44%
Lym [8]: 80%
MCH [8]: 19.7 pg
MCHC [8]: 34.7%
MCV [8]: 56.6 fL
Mono [8]: 2%
Neu [8]: 15.8%
PT [8]: 14 s
Plat [8]: 114 x10_4/uL
RBC [8]: 779.4 x10_4/ul
Ret [8]: 1.9%
WBC [8]: 137.8 x10_2/uL
KIDNEY_L [6]: 1.1 g
KIDNEY_R [6]: 1.1 g
KIDNEY_TOTAL [6]: 2.2 g
KIDNEY_L [7]: 1.3 g
KIDNEY_R [7]: 1.2 g
KIDNEY_TOTAL [7]: 2.5 g
KIDNEY_L [8]: 1.4 g
KIDNEY_R [8]: 1.4 g
KIDNEY_TOTAL [8]: 2.8 g
LIVER [6]: 12.3 g
LIVER [7]: 13.8 g
LIVER [8]: 17.2 g
A/G [6]: 1.7
ALP [6]: 1036.6 IU/L
ALT [6]: 32.8 IU/L
AST [6]: 61.2 IU/L
BUN [6]: 15.2 mg/dL
CRE [6]: 0.4 mg/dL
Ca [6]: 10.5 mg/dL
Cl [6]: 103.2 meq/L
DBIL [6]: 0.086 mg/dL
GLC [6]: 195.8 mg/dL
IP [6]: 7.9 mg/dL
K [6]: 3.8 meq/L
LDH [6]: 205.8 IU/L
Na [6]: 141.6 meq/L
PL [6]: 143 mg/dL
RALB [6]: 3.7 g/dL
TBIL [6]: 0.1 mg/dL
TC [6]: 61 mg/dL
TG [6]: 141.4 mg/dL
TP [6]: 5.9 g/dL
gamma-GTP [6]: 1 IU/L
A/G [7]: 1.7
ALP [7]: 768.4 IU/L
ALT [7]: 28.6 IU/L
AST [7]: 56.2 IU/L
BUN [7]: 16.8 mg/dL
CRE [7]: 0.5 mg/dL
Ca [7]: 10.3 mg/dL
Cl [7]: 101.8 meq/L
DBIL [7]: 0.09 mg/dL
GLC [7]: 215.4 mg/dL
IP [7]: 7.2 mg/dL
K [7]: 3.7 meq/L
LDH [7]: 202.4 IU/L
Na [7]: 140.8 meq/L
PL [7]: 126.8 mg/dL
RALB [7]: 3.6 g/dL
TBIL [7]: 0.1 mg/dL
TC [7]: 49.6 mg/dL
TG [7]: 134 mg/dL
TP [7]: 5.9 g/dL
gamma-GTP [7]: 0.8 IU/L
A/G [8]: 1.6
ALP [8]: 588.2 IU/L
ALT [8]: 34.4 IU/L
AST [8]: 61.6 IU/L
BUN [8]: 18.6 mg/dL
CRE [8]: 0.5 mg/dL
Ca [8]: 10.4 mg/dL
Cl [8]: 103.4 meq/L
DBIL [8]: 0.1 mg/dL
GLC [8]: 221.8 mg/dL
IP [8]: 6.7 mg/dL
K [8]: 3.5 meq/L
LDH [8]: 209 IU/L
Na [8]: 142.4 meq/L
PL [8]: 124.2 mg/dL
RALB [8]: 3.8 g/dL
TBIL [8]: 0.2 mg/dL
TC [8]: 48.6 mg/dL
TG [8]: 144.8 mg/dL
TP [8]: 6.2 g/dL
gamma-GTP [8]: 1 IU/L
